{"source": "patent US20040138109A1", "about": "“Potent inhibitor of HCV serine protease” (Boehringer Ingelheim Pharmaceuticals, Inc., priority 2002, published 2004)", "key": {"[1]": {"target": "NS3 serine protease of HCV genotype 1a (Hepatitis C virus genotype 1a, UniProt P27958)", "sequence (P27958 1027-1657)": "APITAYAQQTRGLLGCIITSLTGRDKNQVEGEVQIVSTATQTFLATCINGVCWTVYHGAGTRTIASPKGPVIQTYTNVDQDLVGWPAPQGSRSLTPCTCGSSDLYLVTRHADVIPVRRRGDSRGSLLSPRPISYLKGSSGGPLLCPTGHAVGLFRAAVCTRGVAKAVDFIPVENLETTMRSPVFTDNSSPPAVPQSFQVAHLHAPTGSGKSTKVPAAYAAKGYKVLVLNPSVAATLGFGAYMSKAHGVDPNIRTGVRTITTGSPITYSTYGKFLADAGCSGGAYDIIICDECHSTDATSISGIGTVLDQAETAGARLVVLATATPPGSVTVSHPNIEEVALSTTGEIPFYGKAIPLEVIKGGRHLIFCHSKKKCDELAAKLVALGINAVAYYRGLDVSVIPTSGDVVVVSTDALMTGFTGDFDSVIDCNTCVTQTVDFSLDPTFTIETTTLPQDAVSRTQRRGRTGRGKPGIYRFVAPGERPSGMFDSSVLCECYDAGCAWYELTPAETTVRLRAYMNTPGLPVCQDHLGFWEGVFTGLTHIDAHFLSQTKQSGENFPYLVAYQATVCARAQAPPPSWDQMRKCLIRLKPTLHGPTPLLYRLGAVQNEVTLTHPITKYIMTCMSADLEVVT", "sequence (P27958 1658-1711)": "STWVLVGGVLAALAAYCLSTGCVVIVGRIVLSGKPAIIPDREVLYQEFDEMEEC", "test": "Steady state velocity analysis with NS3 serine protease, HCV genotype 1a", "type": "biochemical", "conditions": "non-covalent, competitive mode of inhibition, read-out: Inhibitor constant (Ki)", "excerpt": "(§1) A distinguishing feature of the Compound (1) inhibitor series is the presence of a C-terminal carboxylic acid functionality."}, "[2]": {"target": "NS3 serine protease of HCV genotype 1b (Hepatitis C virus genotype 1b, UniProt P26663)", "sequence (P26663 1027-1657)": "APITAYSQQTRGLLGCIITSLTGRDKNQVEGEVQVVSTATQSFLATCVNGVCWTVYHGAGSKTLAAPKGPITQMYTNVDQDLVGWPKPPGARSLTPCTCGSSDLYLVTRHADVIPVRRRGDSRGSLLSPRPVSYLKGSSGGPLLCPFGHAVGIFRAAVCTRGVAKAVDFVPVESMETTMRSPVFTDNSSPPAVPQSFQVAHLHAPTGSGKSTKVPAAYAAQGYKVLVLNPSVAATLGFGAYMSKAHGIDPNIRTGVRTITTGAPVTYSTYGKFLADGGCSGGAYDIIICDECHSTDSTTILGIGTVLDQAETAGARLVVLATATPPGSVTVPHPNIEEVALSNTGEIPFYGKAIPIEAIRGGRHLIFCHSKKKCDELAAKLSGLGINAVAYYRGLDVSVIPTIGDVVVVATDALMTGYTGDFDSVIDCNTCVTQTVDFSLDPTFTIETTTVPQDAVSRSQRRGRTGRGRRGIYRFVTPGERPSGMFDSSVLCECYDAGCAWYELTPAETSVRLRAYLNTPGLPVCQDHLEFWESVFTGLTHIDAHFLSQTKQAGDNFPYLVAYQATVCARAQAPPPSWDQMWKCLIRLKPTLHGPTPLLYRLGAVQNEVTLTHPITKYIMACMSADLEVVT", "sequence (P26663 1658-1711)": "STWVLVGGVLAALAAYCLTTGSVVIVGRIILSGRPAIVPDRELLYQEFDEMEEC", "test": "Steady state velocity analysis with NS3 serine protease, HCV genotype 1b", "type": "biochemical", "conditions": "non-covalent, competitive mode of inhibition, read-out: Inhibitor constant (Ki)", "excerpt": "as §1"}, "HCV RNA replication": {"test_system": "HCV RNA replication", "test": "HCV RNA replication in the replicon cell model system", "type": "cell-based", "conditions": "human cells", "excerpt": "as §1"}, "[3]": {"test_system": "NS3 protease-dependent polyprotein processing", "test": "NS3 protease-dependent polyprotein processing in HCV replicon-containing cells", "type": "cell-based", "excerpt": "as §1"}, "[4]": {"test": "Oral bioavailability in animal species", "type": "in vivo", "conditions": "various animal species", "excerpt": "as §1"}, "[5]": {"test": "Single rising dose trial in healthy male subjects", "type": "in vivo, human", "protocol": "(§2) In a first single rising dose trial in healthy male subjects the tolerability and pharmacokinetic parameters of Compound (1) were investigated. […] The degree of viral load reduction upon administration of Compound (1) was a significant and unexpected finding, with some patients even experiencing up to a 3 log reduction in viral load within 48 hours after the first administration of Compound (1)."}, "HCV": {"test_system": "HCV", "test": "Clinical study in patients with chronic HCV infection, viral load", "type": "in vivo, human", "conditions": "HCV infected patients, oral formulation, within 48 hours after first administration, some patients", "protocol": "as §2\nThe term “viral load” with respect to HCV in a mammal means the number of HCV mRNA genome copies per ml of serum present in the mammal. The viral load value can be measured, for example, by mRNA-PCR quantitation in blood samples using Cobas Amplicor HCV Monitor v 2.0 (Roche Diagnostics); Amplicor HCV v 2.0, Roche Diagnostics; HCV Transcription Mediated Amplification (TMA) assay, Bayer Diagnostics; HCV RNA Qualitative Testing (TMA) assay, Bayer Diagnostics; the HCV branched DNA (bDNA) assay version 3.0, Bayer Diagnostics; Versant HCV RNA 3.0 Assay (bDNA), Bayer Diagnostics, and Superquant assay, National Genetics Institute (Los Angeles, Calif.).\nThe degree of viral load reduction upon the administration of Compound (1) was a significant and unexpected finding, with some patients even experiencing up to a 3 log reduction in viral load within 48 hours after the first administration of Compound (1). […]"}, "[6]": {"test": "Light sensitivity of the oral solution", "type": "physicochemical", "conditions": "solution in PEG 400:Ethanol 80:20 w/w", "excerpt": "Keep away from direct sunlight and cover with aluminium foil whenever possible."}}}
{"smiles": "COc1ccc2c(O[C@@H]3C[C@H]4C(=O)N[C@]5(C(=O)O)C[C@H]5/C=C\\CCCCC[C@H](NC(=O)OC5CCCC5)C(=O)N4C3)cc(-c3csc(NC(C)C)n3)nc2c1", "note": "[Compound (1)]", "values": [{"measurement": "Ki", "setting": "[1]", "value": 0.3, "unit": "nM"}, {"measurement": "Ki", "setting": "[2]", "value": 0.66, "unit": "nM"}, {"measurement": "Inhibition of HCV RNA replication", "setting": "HCV RNA replication", "value": "low nanomolar inhibition"}, {"measurement": "Ability to block NS3 protease-dependent polyprotein processing", "setting": "[3]", "value": "block NS3 protease-dependent polyprotein processing"}, {"measurement": "Oral bioavailability", "setting": "[4]", "value": "orally bioavailable"}, {"measurement": "Tolerability", "setting": "[5]", "value": "well tolerated up to 2000 mg"}, {"measurement": "Reduction in viral load", "setting": "HCV", "value": "≤ 3", "unit": "log"}, {"measurement": "Light sensitivity", "setting": "[6]", "value": "light sensitive"}]}
